The target in this experiment is Nav 1.7 (Homo sapiens (Human), UniProt Q15858). Nature of the experiment: in-vitro Nav 1.7 PX (IC50). Format: cell-based.

The values below come from patent US9212182B2, “Bicyclic sulfonamide compounds as sodium channel inhibitors” (AMGEN INC., priority 2013, dated 2015).

The structures appear in SMILES notation. Where two headings read alike, the source gives them in different places.

Sequence of Nav 1.7 (Q15858 whole entry): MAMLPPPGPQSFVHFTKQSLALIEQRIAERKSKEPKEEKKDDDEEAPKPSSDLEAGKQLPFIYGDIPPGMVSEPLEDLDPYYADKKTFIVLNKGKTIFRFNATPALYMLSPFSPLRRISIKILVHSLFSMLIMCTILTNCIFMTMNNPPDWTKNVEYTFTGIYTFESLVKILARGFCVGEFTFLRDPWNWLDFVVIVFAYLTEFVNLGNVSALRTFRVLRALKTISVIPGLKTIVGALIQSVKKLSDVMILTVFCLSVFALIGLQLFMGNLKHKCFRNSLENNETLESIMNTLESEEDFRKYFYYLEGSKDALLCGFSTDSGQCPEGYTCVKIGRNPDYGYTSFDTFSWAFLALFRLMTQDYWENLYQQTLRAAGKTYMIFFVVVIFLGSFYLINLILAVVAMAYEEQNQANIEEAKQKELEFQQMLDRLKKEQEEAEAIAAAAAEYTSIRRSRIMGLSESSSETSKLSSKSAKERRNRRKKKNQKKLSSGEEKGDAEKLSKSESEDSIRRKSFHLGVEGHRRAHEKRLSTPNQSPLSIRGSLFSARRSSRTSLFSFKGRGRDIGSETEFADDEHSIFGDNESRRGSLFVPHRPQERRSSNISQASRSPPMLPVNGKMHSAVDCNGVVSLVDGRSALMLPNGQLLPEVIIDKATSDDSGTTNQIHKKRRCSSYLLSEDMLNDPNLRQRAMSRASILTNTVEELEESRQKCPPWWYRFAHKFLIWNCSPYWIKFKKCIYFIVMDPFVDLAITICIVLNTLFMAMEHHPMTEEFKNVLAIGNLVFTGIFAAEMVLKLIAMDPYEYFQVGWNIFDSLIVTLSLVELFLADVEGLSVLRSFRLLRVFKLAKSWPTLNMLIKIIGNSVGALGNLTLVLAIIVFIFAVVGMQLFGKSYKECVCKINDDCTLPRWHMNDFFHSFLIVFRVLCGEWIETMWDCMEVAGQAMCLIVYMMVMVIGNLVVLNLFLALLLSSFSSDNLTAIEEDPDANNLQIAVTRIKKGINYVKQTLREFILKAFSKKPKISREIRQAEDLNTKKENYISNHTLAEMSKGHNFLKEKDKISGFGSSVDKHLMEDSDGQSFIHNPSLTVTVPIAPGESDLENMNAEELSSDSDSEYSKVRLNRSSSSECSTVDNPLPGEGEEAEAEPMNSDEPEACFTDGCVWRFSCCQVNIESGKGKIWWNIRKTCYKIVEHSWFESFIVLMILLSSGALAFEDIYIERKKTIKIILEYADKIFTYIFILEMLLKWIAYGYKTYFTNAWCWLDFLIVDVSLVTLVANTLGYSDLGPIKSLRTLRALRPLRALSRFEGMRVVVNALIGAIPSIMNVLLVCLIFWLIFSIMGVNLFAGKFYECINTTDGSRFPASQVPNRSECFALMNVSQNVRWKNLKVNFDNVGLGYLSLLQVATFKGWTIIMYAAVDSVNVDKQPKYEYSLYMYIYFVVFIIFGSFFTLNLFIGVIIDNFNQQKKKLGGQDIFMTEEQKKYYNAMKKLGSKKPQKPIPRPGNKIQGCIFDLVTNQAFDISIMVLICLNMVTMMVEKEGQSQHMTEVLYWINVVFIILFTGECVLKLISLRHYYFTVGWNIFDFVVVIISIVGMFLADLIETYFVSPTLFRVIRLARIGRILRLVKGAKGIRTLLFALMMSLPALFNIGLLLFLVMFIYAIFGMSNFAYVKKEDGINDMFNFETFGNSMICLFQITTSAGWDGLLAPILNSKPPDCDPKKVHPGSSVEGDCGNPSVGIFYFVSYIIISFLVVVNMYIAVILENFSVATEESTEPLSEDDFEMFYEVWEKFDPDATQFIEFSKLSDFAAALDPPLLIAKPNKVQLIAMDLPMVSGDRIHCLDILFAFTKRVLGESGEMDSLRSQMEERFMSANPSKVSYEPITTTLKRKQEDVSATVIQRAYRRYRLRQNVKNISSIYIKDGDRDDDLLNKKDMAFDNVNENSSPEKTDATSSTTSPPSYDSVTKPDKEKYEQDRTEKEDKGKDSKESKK

Broadly, the IC50 is the concentration needed to halve the response being measured. `COc1cc(-c2cc(OC)c(-n3c(=O)ccc4cc(S(=O)(=O)Nc5ccnc(C)n5)ccc43)cc2F)ccc1F` [Example 1008, 1-(2,4′-difluoro-3′,5-dimethoxy-4-biphenylyl)-N-(2-methyl-4-pyrimidinyl)-2-oxo-1,2-dihydro-6-quinolinesulfonamide]: the IC50 (in-vitro Nav 1.7 PX data) is 0.21 µM. For the compound `COc1nc(N2CC(F)(F)C2)c(Cl)cc1-n1c(=O)ccc2cc(S(=O)(=O)Nc3ccon3)ccc21` [Example 342, 1-(5-chloro-6-(3,3-difluoroazetidin-1-yl)-2-methoxypyridin-3-yl)-N-(isoxazol-3-yl)-2-oxo-1,2-dihydroquinoline-6-sulfonamide], the half-inhibitory concentration (IC50) (in-vitro PatchXpress (PX)) worked out at 1.64 µM.

Take `CO[C@H]1CCCC[C@@H]1n1c(=O)ccc2cc(S(=O)(=O)Nc3ncns3)ccc21` (racemic) [Example 1145, (±)-1-((1S,2S)-2-methoxycyclohexyl)-2-oxo-N-1,2,4-thiadiazol-5-yl-1,2-dihydro-6-quinolinesulfonamide]: the midpoint of inhibition, the IC50, lay at 0.471 µM. As for `COc1cc(-c2cccc(Cl)c2C)ccc1-n1c(=O)ccc2cc(S(=O)(=O)Nc3ccon3)ccc21` [Example 1028, 1-(3′-chloro-3-methoxy-2′-methyl-4-biphenylyl)-N-3-isoxazolyl-2-oxo-1,2-dihydro-6-quinolinesulfonamide], the midpoint of inhibition (in-vitro Nav 1.7 PX data), the IC50, lay at 0.018 µM. For `COc1cc(-c2cncc(Cl)c2)c(F)cc1-n1c(=O)ccc2cc(S(=O)(=O)Nc3ccon3)ccc21` (atropisomer, axis not shown; (M)) [Example 409, (M)-1-(4-(5-chloro-3-pyridinyl)-5-fluoro-2-methoxyphenyl)-N-3-isoxazolyl-2-oxo-1,2-dihydro-6-quinolinesulfonamide], the IC50 (in-vitro PatchXpress (PX)) worked out at 0.06 µM. Compound `COc1cc(Cl)c(-c2cccc(F)c2)cc1-n1c(=O)ccc2cc(S(=O)(=O)Nc3ccon3)ccc21` (atropisomer, axis not shown; (M)) [Example 609, (M)-1-(6-chloro-3′-fluoro-4-methoxy-3-biphenylyl)-N-3-isoxazolyl-2-oxo-1,2-dihydro-6-quinolinesulfonamide] displayed an IC50 (in-vitro Nav 1.7 PX data) of 10.1 µM. As to `COc1cc(-c2ccncc2)c(F)cc1-n1c(=O)ccc2cc(S(=O)(=O)Nc3ccon3)ccc21` [Example 505, 1-(5-fluoro-2-methoxy-4-(4-pyridinyl)phenyl)-N-3-isoxazolyl-2-oxo-1,2-dihydro-6-quinolinesulfonamide], 1.8 µM corresponded to half-maximal inhibition (in-vitro PatchXpress (PX)) (IC50).

Turning to `COc1cnc(Cl)cc1-n1c(=O)ccc2cc(S(=O)(=O)Nc3ccon3)ccc21` [Example 617, 1-(2-chloro-5-methoxy-4-pyridinyl)-N-3-isoxazolyl-2-oxo-1,2-dihydro-6-quinolinesulfonamide], under “in-vitro Nav 1.7 PX data”, half-maximal inhibition (IC50) required 3.88 µM. The compound `COc1cc(C2CCC(F)(F)CC2)c(F)cc1-n1c(=O)ccc2cc(S(=O)(=O)Nc3ccon3)ccc21` [Example 1102, 1-(4-(4,4-difluorocyclohexyl)-5-fluoro-2-methoxyphenyl)-N-3-isoxazolyl-2-oxo-1,2-dihydro-6-quinolinesulfonamide] displayed a half-inhibitory concentration (IC50) (in-vitro Nav 1.7 PX data) of 0.237 µM.

Compound `COc1cc(-c2cccc(OC(C)C)c2)ccc1-n1c(=O)ccc2cc(S(=O)(=O)Nc3cccnn3)ccc21` (atropisomer, axis not shown; (P)) [Example 1207, (P)-1-(3-methoxy-3′-(1-methylethoxy)-4-biphenylyl)-2-oxo-N-3-pyridazinyl-1,2-dihydro-6-quinolinesulfonamide] displayed an IC50 of 0.109 µM. Regarding `COc1cc(-c2cccc(C(F)(F)F)c2)ccc1-n1c(=O)ccc2cc(S(=O)(=O)Nc3cccnn3)ccc21` (atropisomer, axis not shown; (P)) [Example 369, (P)-1-(3-methoxy-3′-(trifluoromethyl)-4-biphenylyl)-2-oxo-N-3-pyridazinyl-1,2-dihydro-6-quinolinesulfonamide], 0.016 µM corresponded to half-maximal inhibition (in-vitro PatchXpress (PX)) (IC50). For `COc1cc(-c2cccc(OC)c2Cl)ccc1-n1c(=O)ccc2cc(S(=O)(=O)Nc3ccon3)ccc21` [Example 782, 1-(2′-chloro-3,3′-dimethoxy-4-biphenylyl)-N-3-isoxazolyl-2-oxo-1,2-dihydro-6-quinolinesulfonamide], it took 0.087 µM to reach half-maximal inhibition (in-vitro Nav 1.7 PX data) (IC50). As for `N#CCOc1cc(-c2cccc(F)c2)c(F)cc1-n1c(=O)ccc2cc(S(=O)(=O)Nc3ccon3)ccc21` [Example 387, 1-(5-(cyanomethoxy)-2,3′-difluoro-[1,1′-biphenyl]-4-yl)-N-(isoxazol-3-yl)-2-oxo-1,2-dihydroquinoline-6-sulfonamide], the 50% inhibitory concentration (IC50) turned out to be 0.089 µM.

For `COc1cc(-c2cccc(F)c2)c(Cl)cc1-n1c(=O)ccc2cc(S(=O)(=O)Nc3nncs3)ccc21` (atropisomer, axis not shown; (M)) [Example 354, (M)-1-(2-chloro-3′-fluoro-5-methoxy-[1,1′-biphenyl]-4-yl)-2-oxo-N-(1,3,4-THIADIAZOL-2-yl)-1,2-dihydroquinoline-6-sulfonamide], the IC50 was 5.86 µM. Take `COc1cc(-c2cc(F)cc(Cl)c2)ccc1-n1c(=O)ccc2cc(S(=O)(=O)Nc3cccnn3)ccc21` (atropisomer, axis not shown; (M)) [Example 481, (M)-1-(3′-chloro-5′-fluoro-3-methoxy-4-biphenylyl)-2-oxo-N-3-pyridazinyl-1,2-dihydro-6-quinolinesulfonamide]: inhibition (in-vitro PatchXpress (PX)) was half-maximal at 3.07 µM (IC50). Turning to `COc1ccccc1-n1c(=O)ccc2cc(S(=O)(=O)Nc3ccon3)ccc21` [Example 1154, N-(isoxazol-3-yl)-1-(2-methoxyphenyl)-2-oxo-1,2-dihydroquinoline-6-sulfonamide], the IC50 was determined as 10.1 µM. Compound `COc1ccc(-c2ccc(Cl)c(F)c2)cc1-n1c(=O)ccc2cc(S(=O)(=O)Nc3ccon3)ccc21` [Example 874, 1-(4′-chloro-3′-fluoro-4-methoxy-3-biphenylyl)-N-3-isoxazolyl-2-oxo-1,2-dihydro-6-quinolinesulfonamide] displayed an IC50 (in-vitro Nav 1.7 PX data) of 0.033 µM.

In turn, `COc1nc(OCc2ccc(F)cc2F)c(Cl)cc1-n1c(=O)ccc2cc(S(=O)(=O)Nc3ccon3)ccc21` [Example 1213, 1-(5-chloro-6-((2,4-difluorobenzyl)oxy)-2-methoxy-3-pyridinyl)-N-3-isoxazolyl-2-oxo-1,2-dihydro-6-quinolinesulfonamide] showed a half-maximal inhibitory concentration (IC50) of 0.172 µM.

`COc1cc(-c2cc(OC)c(-n3c(=O)ccc4cc(S(=O)(=O)Nc5ncco5)ccc43)cc2F)ccc1F` [Example 1011, 1-(2,4′-difluoro-3′,5-dimethoxy-4-biphenylyl)-N-1,3-oxazol-2-yl-2-oxo-1,2-dihydro-6-quinolinesulfonamide] gave an IC50 (in-vitro Nav 1.7 PX data) of 0.207 µM. As to `COc1cc(-c2ccc(C)nc2)c(F)cc1-n1c(=O)ccc2cc(S(=O)(=O)Nc3ccon3)ccc21` [Example 500, 1-(5-fluoro-2-methoxy-4-(6-methyl-3-pyridinyl)phenyl)-N-3-isoxazolyl-2-oxo-1,2-dihydro-6-quinolinesulfonamide], the half-maximal inhibitory concentration (IC50) (in-vitro PatchXpress (PX)) was 2.84 µM.

Compound `COc1cc(C#CC2(O)CCCC2)c(F)cc1-n1c(=O)ccc2cc(S(=O)(=O)Nc3ccon3)ccc21` (atropisomer, axis not shown; (P)) [Example 1233, (P)-1-(5-fluoro-4-((1-hydroxycyclopentyl)ethynyl)-2-methoxyphenyl)-N-3-isoxazolyl-2-oxo-1,2-dihydro-6-quinolinesulfonamide] returned an IC50 of 0.631 µM. In turn, `COc1cc(-c2cncc(Cl)c2)c(F)cc1-n1c(=O)ccc2cc(S(=O)(=O)Nc3ccon3)ccc21` (atropisomer, axis not shown; (P)) [Example 408, (P)-1-(4-(5-chloro-3-pyridinyl)-5-fluoro-2-methoxyphenyl)-N-3-isoxazolyl-2-oxo-1,2-dihydro-6-quinolinesulfonamide] yielded an IC50 (in-vitro PatchXpress (PX)) of 8.04 µM. `COc1cncc(-c2cc(OC)c(-n3c(=O)ccc4cc(S(=O)(=O)Nc5ccon5)ccc43)cc2F)c1` [Example 738, 1-(5-fluoro-2-methoxy-4-(5-methoxy-3-pyridinyl)phenyl)-N-3-isoxazolyl-2-oxo-1,2-dihydro-6-quinolinesulfonamide] returned a concentration for half-maximal inhibition (IC50) (in-vitro Nav 1.7 PX data) of 1.23 µM. `COc1cc(-c2cccc(OC)c2C)c(F)cc1-n1c(=O)ccc2cc(S(=O)(=O)Nc3ccon3)ccc21` [Example 735, 1-(2-fluoro-3′,5-dimethoxy-2′-methyl-4-biphenylyl)-N-3-isoxazolyl-2-oxo-1,2-dihydro-6-quinolinesulfonamide]: for the setting “in-vitro Nav 1.7 PX data”, half-maximal inhibition (IC50) was put at 0.054 µM. Consider `COc1cnc(-c2cc(F)cc(Cl)c2)cc1-n1c(=O)ccc2cc(S(=O)(=O)Nc3ccon3)ccc21` [Example 618, 1-(2-(3-chloro-5-fluorophenyl)-5-methoxy-4-pyridinyl)-N-3-isoxazolyl-2-oxo-1,2-dihydro-6-quinolinesulfonamide], for which, under “in-vitro Nav 1.7 PX data”, the IC50 was determined as 0.605 µM.

Compound `COc1cc(-c2cccc(C(F)(F)F)c2)ccc1-n1c(=O)ccc2cc(S(=O)(=O)Nc3ccc(C)nn3)ccc21` [Example 1138, 1-(3-methoxy-3′-(trifluoromethyl)-4-biphenylyl)-N-(6-methyl-3-pyridazinyl)-2-oxo-1,2-dihydro-6-quinolinesulfonamide] had an IC50 (in-vitro Nav 1.7 PX data) of 0.146 µM.

In turn, `COc1cc(-c2cc(C)cc(Cl)c2)ccc1-n1c(=O)ccc2cc(S(=O)(=O)Nc3ccon3)ccc21` (atropisomer, axis not shown; (P)) [Example 585, (P)-1-(3′-chloro-3-methoxy-5′-methyl-4-biphenylyl)-N-3-isoxazolyl-2-oxo-1,2-dihydro-6-quinolinesulfonamide] yielded an IC50 of 0.008 µM.

`COc1cc(Cl)cc(-c2ccc(-n3c(=O)ccc4cc(S(=O)(=O)Nc5cccnn5)ccc43)c(OC)c2)c1` [Example 928, 1-(3′-chloro-3,5′-dimethoxy-4-biphenylyl)-2-oxo-N-3-pyridazinyl-1,2-dihydro-6-quinolinesulfonamide] had an IC50 (in-vitro Nav 1.7 PX data) of 0.008 µM. Turning to `COc1cc(-c2ccc(Cl)c(F)c2)ccc1-n1c(=O)ccc2cc(S(=O)(=O)Nc3ccon3)ccc21` (atropisomer, axis not shown; (M)) [Example 579, (M)-1-(4′-chloro-3′-fluoro-3-methoxy-4-biphenylyl)-N-3-isoxazolyl-2-oxo-1,2-dihydro-6-quinolinesulfonamide], the concentration for half-maximal inhibition (IC50) is 4.31 µM.

`COc1cc(-c2ccc(C)c(F)c2)c(F)cc1-n1c(=O)ccc2cc(S(=O)(=O)Nc3ncccn3)ccc21` [Example 1126, 1-(2,3′-difluoro-5-methoxy-4′-methyl-4-biphenylyl)-2-oxo-N-2-pyrimidinyl-1,2-dihydro-6-quinolinesulfonamide] gave an IC50 (in-vitro Nav 1.7 PX data) of 0.057 µM.
